These results are taken from patent US20040014807A1, “Phenalenone derivatives, processes for preparation and use thereof” (priority 2002, published 2004).

Data set [1] can be described thus: reaction with atmospheric oxygen (antioxidant action). The format is physicochemical. As to conditions: in solution and in solid form. The text has this: The compounds of the formula (I) can also be used as antioxidants. Antioxidants (oxidation inhibitors) are organic compounds which inhibit or prevent undesired changes in the substances to be protected caused by the effects of oxygen. Antioxidants are needed, for example, in plastics for protection against ageing, in fats for protection against rancidity, in oils against resinification, in aromatic substances against odor impairment, in foodstuffs, and in pharmaceuticals. The action of the antioxidants usually consists in acting as radical scavengers for the free radicals occurring in the oxidation. The antioxidative action of atrovenetin (compound of the formula (III)) has already been described by Y. Ishikawa et al. (J. Am. Oil Chem. Soc. 68, 666-668, 1991). Microbial antioxidants, however, are often too weak or not highly tolerable in their action. There is therefore a great need for novel, efficacious and tolerable antioxidants. […] This increased affinity of penilenone for oxygen, however, is decidedly advantageous for very oxidation-sensitive substances.

In a further data set the test system is Streptomyces murinus. Briefly: agar diffusion test (antibiogram on solid nutrient plates with antibiotic diffusion). The format is cell-based. As to conditions: agar plate containing Streptomyces murinus culture. On the procedure:
Moreover to be emphasized is an antimicrobial inhibitory action of the compounds of formula (I) according to the invention on bacteria, such as, for example, Staphylococcus aureus, Streptomyces murinus and against fungi, such as Aspergillus niger, which can cause stubborn, life-threatening infectious diseases. […] Thus, penilenone on an agar plate containing Streptomyces murinus culture in a solution of 1 mg per mL causes an inhibition halo of 11 mm and in a solution of 0.1 mg per mL an inhibition halo of 8 mm. The compounds of the formula (I) according to the invention are therefore likewise suitable for the treatment and/or prophylaxis of bacterial infections and/or fungal diseases (micosis or mycoses).

Data set [2] in a line: solubility (physicochemical properties). From the text: (§1) The melting point is not determinable because of decomposition. Stable in mildly acidic medium under reducing conditions. Under the influence of oxygen, penilenone turns green in neutral medium or in the presence of amines.
Data set [3] is described as follows: stability (physicochemical properties).
From the text: as §1

Regarding `Cc1cc(O)c2c3c(c(O)c4c(c13)OC(C)C4(C)C)C(O)=C(O)C2=O` (centres unmarked) [atrovenetin, reference compound], the “reaction with atmospheric oxygen” value in data set [1] was “reacts only slowly with atmospheric oxygen”.
`Cc1cc(O)c2c3c(c(O)cc(O)c13)C(O)=C(O)C2=O` [penilenone]: the inhibition halo with Streptomyces murinus (solution of 0.1 mg per mL) is 8 mm; in the data set on Streptomyces murinus (solution of 1 mg per mL), 11 mm. The “reaction with atmospheric oxygen” value in data set [1] is “combines with oxygen within seconds or in a few minutes”. In data set [2] (medium polar and polar organic solvents), the “solubility in organic solvents” value was “soluble in medium polar and polar organic solvents”. The solubility in water result in data set [2] (water) is “not very soluble in water”. The stability entry in data set [3] (mildly acidic medium under reducing conditions) is given as “Stable”. In data set [3] (neutral medium or in the presence of amines), the “behaviour under the influence of oxygen” value is on record as “turns green”.
